According to paper PMC10683472, “Deep Learning-Driven Library Design for the De Novo Discovery of Bioactive Thiopeptides” (ACS Central Science, 2023):
*1 amine or outer side, *2 acyl side, *3 side chain or, on linkers, in order; H or OH if unused. Where a SMILES comes first, the peptide text is derived from it. Bridges are numbered along the chain shown (N, C = ends). [ ]: non-standard residue; d: D form. X2 = C=C(N[*:2])c1nc(-c2nc(-c3nc(C(=O)OC)cs3)ccc2C(=O)[*:1])cs1; Nle = CCCC[C@H](N)C(=O)O; Dha = C=C(N)C(=O)O

Tests used:
Serum stability assay = assay type: in vitro ADME; conditions: pH 7.6; human serum, 37 °C, LC/MS; read-out: serum stability τ1/2 (converted)
Experimental: Next, we tested the metabolic stability of the discovered thiopeptides. The compounds were incubated in human serum at 37 °C in the presence of an internal control, and the amounts of the remaining analytes were quantified by LC/MS (Figures S27 and 28). […] At the other extreme, IR11 rapidly degraded in human serum with τ1/2 = 0.5 h. […]
Kinetic parameters and affinities of the […]
2.12. Thiopeptide metabolic stability experiments
The mixtures were stirred
well and transferred to a 37 °C thermostat. […]

TLR10 [1] = biological target: T1, TLR10 (Homo sapiens, UniProt Q9BXR5); test: Single-round mRNA display binding assay (qPCR), TLR10; conditions: ratio of cDNA recoveries (qPCR), TLR10 pulldown over beads only, single-round selection
T1 sequence (Q9BXR5 20-576): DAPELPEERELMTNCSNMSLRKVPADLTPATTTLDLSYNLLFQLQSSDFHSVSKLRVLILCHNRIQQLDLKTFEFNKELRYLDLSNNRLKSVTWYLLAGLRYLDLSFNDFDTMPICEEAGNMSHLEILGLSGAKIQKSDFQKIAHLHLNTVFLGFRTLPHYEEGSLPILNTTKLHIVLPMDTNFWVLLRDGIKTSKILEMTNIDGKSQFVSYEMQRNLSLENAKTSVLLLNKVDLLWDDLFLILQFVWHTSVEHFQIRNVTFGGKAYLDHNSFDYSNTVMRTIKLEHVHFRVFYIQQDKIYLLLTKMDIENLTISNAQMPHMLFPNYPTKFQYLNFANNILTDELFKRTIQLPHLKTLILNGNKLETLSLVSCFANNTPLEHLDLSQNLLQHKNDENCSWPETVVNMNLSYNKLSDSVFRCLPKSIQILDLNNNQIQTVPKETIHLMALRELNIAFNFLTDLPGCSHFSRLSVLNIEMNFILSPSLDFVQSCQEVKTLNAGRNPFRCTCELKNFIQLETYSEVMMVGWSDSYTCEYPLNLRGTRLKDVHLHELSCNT

TLR10 [2] = biological target: T1, TLR10; test: mRNA display affinity selection against TLR10, NGS abundance; assay type: binding; design: Chimera protein (extracellular domain, amino acid 20-576;); Fc (chimera); purchased R&D system #6619-TR-050; conditions: for rank in pulldown(–) / rank in pulldown(+): TLR10 selection, NGS abundance rank; for rank in pulldown(+): –: not found in the final pulldown(+) libraries at the sequenced depth
[3] = biological target: T2, Human TLR10 Fc Chimera protein (extracellular domain) (Homo sapiens, UniProt Q9BXR5); test: Surface plasmon resonance binding to TLR10; conditions: SPR
T2 construct: Chimera protein (extracellular domain, amino acid 20-576;); Fc (chimera); purchased R&D system #6619-TR-050
T2 sequence (Q9BXR5 20-576): T1 sequence (Q9BXR5 20-576)
Experimental: Reagents were purchased from Nacalai Tesque, Wako Pure Chemical Industries, Sigma-Aldrich Japan, or TCI Chemicals and were used as received. […]
Anti-HA magnetic beads were from Pierce Thermo […]
2000c spectrophotometer (Thermo Scientific) equipped with a 5 mm pathlength quartz cuvette using extinction coefficient values calculated with ExPASy ProtParam tool (https://web.expasy.org/protparam). […]
Biochemical measurements (sections 2.10 – 2.14) were performed in triplicate or more. Most […]
determination of biophysical parameters involved cell assay (CP50 and IC50), reported are standard errors of the fit; otherwise, error bars are standard deviations. […]

[4] = TLR10 selection pulldown (-), Top100 selection hits, NGS

SMILES	half-life at 10 µM (Serum stability assay) [h]	display P/N ratio (TLR10 [1])	rank in pulldown(–) (TLR10 [2])	rank in pulldown(+) (TLR10 [2])	koff [3] [s⁻¹]	kon [3] [M⁻¹ s⁻¹]	fraction of the pulldown(−) population (TLR10 [2]; TLR10 pulldown(−) selection, NGS) [%]	Library fraction (TLR10 [2]; [4])	Raw reads (TLR10 [2]; [4])
C=C1NC(=O)[C@H](Cc2c[nH]c3ccccc23)NC(=O)CNC(=O)[C@H](C(C)C)NC(=O)[C@H](CC(N)=O)NC(=O)CNC(=O)CNC(=O)[C@H](Cc2ccc(O)cc2)NC(=O)[C@@H]2CCCN2C(=O)[C@H](CC(N)=O)NC(=O)[C@H]([C@@H](C)O)NC(=O)[C@H](Cc2c[nH]c3ccccc23)NC(=O)c2ccc(-c3nc(C(=O)OC)cs3)nc2-c2csc1n2 [TL1] (HELM PEPTIDE1{W.T.N.P.Y.G.G.N.V.G.W}|CHEM1{[C=C(N[*:2])c1nc(-c2nc(-c3nc(C(=O)OC)cs3)ccc2C(=O)[*:1])cs1]}$PEPTIDE1,CHEM1,1:R1-1:R1|PEPTIDE1,CHEM1,11:R2-1:R2$$$V2.0; bridges inferred)	4.6 ± 0.3	127	1	3					
C=C1NC(=O)[C@H](Cc2ccccc2)NC(=O)[C@H](C)NC(=O)[C@H](C(C)C)NC(=O)[C@H](CCCCN)NC(=O)[C@H](CCCNC(=N)N)NC(=O)[C@H](CCC(N)=O)NC(=O)[C@H](CC(C)C)NC(=O)[C@H](Cc2c[nH]c3ccccc23)NC(=O)[C@H](Cc2ccccc2)NC(=O)[C@H](CO)NC(=O)[C@H]([C@@H](C)CC)NC(=O)[C@H](CCCC(N)=O)NC(=O)[C@H](Cc2c[nH]c3ccccc23)NC(=O)c2ccc(-c3nc(C(=O)OC)cs3)nc2-c2csc1n2 [TL3] (HELM PEPTIDE1{W.[O=C([C@H](CCCC(=O)[*:3])N[*:1])[*:2]].I.S.F.W.L.Q.R.K.V.A.F}|PEPTIDE2{[am]}|CHEM1{[C=C(N[*:2])c1nc(-c2nc(-c3nc(C(=O)OC)cs3)ccc2C(=O)[*:1])cs1]}$PEPTIDE1,PEPTIDE2,2:R3-1:R1|PEPTIDE1,CHEM1,1:R1-1:R1|PEPTIDE1,CHEM1,13:R2-1:R2$$$V2.0; bridges inferred)	3.2 ± 0.2	186	2		0.0056	6270	8.1	0.095	11388
C=C1NC(=O)[C@H](Cc2ccccc2)NC(=O)[C@H](C)NC(=O)[C@H]([C@@H](C)CC)NC(=O)[C@H](CCCCN)NC(=O)[C@H](CC(N)=O)NC(=O)[C@H](CCC(N)=O)NC(=O)[C@H](CC(N)=O)NC(=O)[C@H]([C@@H](C)O)NC(=O)[C@H](Cc2ccccc2)NC(=O)[C@H](CCCNC(=N)N)NC(=O)[C@H]([C@@H](C)CC)NC(=O)[C@H]([C@@H](C)O)NC(=O)[C@H](Cc2c[nH]c3ccccc23)NC(=O)c2ccc(-c3nc(C(=O)OC)cs3)nc2-c2csc1n2 [TL4] (HELM PEPTIDE1{W.T.I.R.F.T.N.Q.N.K.I.A.F}|CHEM1{[C=C(N[*:2])c1nc(-c2nc(-c3nc(C(=O)OC)cs3)ccc2C(=O)[*:1])cs1]}$PEPTIDE1,CHEM1,1:R1-1:R1|PEPTIDE1,CHEM1,13:R2-1:R2$$$V2.0; bridges inferred)	4.4 ± 0.3	975	3	7	0.033	47500			
C=C1NC(=O)[C@H]([C@@H](C)CC)NC(=O)[C@H](C)NC(=O)[C@H](CC(C)C)NC(=O)[C@H](CCCCN)NC(=O)[C@H](CO)NC(=O)[C@H](CCC(N)=O)NC(=O)[C@H](CC(C)C)NC(=O)[C@H](CCCNC(=N)N)NC(=O)[C@H](Cc2ccccc2)NC(=O)[C@H](CC(C)C)NC(=O)[C@H](CCCC)NC(=O)[C@H]([C@@H](C)O)NC(=O)[C@H](Cc2c[nH]c3ccccc23)NC(=O)c2ccc(-c3nc(C(=O)OC)cs3)nc2-c2csc1n2 [TL6] (HELM PEPTIDE1{W.T.[Nle].L.F.R.L.Q.S.K.L.A.I}|CHEM1{[C=C(N[*:2])c1nc(-c2nc(-c3nc(C(=O)OC)cs3)ccc2C(=O)[*:1])cs1]}$PEPTIDE1,CHEM1,1:R1-1:R1|PEPTIDE1,CHEM1,13:R2-1:R2$$$V2.0)	8.2 ± 1.2	268	12		0.0048	7650			
C=C1NC(=O)[C@H](Cc2ccc(O)cc2)NC(=O)[C@H](C)NC(=O)[C@H](C(C)C)NC(=O)[C@H](CCCCN)NC(=O)CNC(=O)[C@H](CC(C)C)NC(=O)[C@H](CCCNC(=N)N)NC(=O)[C@@H]2CCCN2C(=O)[C@H](Cc2ccccc2)NC(=O)[C@H](CCCC)NC(=O)[C@H](CCCC)NC(=O)[C@H]([C@@H](C)O)NC(=O)[C@H](Cc2c[nH]c3ccccc23)NC(=O)c2ccc(-c3nc(C(=O)OC)cs3)nc2-c2csc1n2 [TL9] (HELM PEPTIDE1{W.T.[Nle].[Nle].F.P.R.L.G.K.V.A.Y}|CHEM1{[C=C(N[*:2])c1nc(-c2nc(-c3nc(C(=O)OC)cs3)ccc2C(=O)[*:1])cs1]}$PEPTIDE1,CHEM1,1:R1-1:R1|PEPTIDE1,CHEM1,13:R2-1:R2$$$V2.0)	1.7 ± 0.1	235	37	22					
C=C1NC(=O)CNC(=O)[C@H]([C@@H](C)CC)NC(=O)[C@H]([C@@H](C)CC)NC(=O)CNC(=O)[C@H](CCC(N)=O)NC(=O)CNC(=O)[C@H](CCCC(N)=O)NC(=O)[C@H](Cc2c[nH]c3ccccc23)NC(=O)[C@H](C(C)C)NC(=O)[C@H]([C@@H](C)CC)NC(=O)[C@H](CC(N)=O)NC(=O)[C@H](CO)NC(=O)[C@H](Cc2c[nH]c3ccccc23)NC(=O)c2ccc(-c3nc(C(=O)OC)cs3)nc2-c2csc1n2 [TL10] (HELM PEPTIDE1{W.S.N.I.V.W.[O=C([C@H](CCCC(=O)[*:3])N[*:1])[*:2]].G.Q.G.I.I.G}|PEPTIDE2{[am]}|CHEM1{[C=C(N[*:2])c1nc(-c2nc(-c3nc(C(=O)OC)cs3)ccc2C(=O)[*:1])cs1]}$PEPTIDE1,PEPTIDE2,7:R3-1:R1|PEPTIDE1,CHEM1,1:R1-1:R1|PEPTIDE1,CHEM1,13:R2-1:R2$$$V2.0; bridges inferred)	4.7 ± 0.3	352	4	1					
C=C1NC(=O)[C@H](CCCC(N)=O)NC(=O)[C@H](Cc2ccc(O)cc2)NC(=O)[C@H](CC(C)C)NC(=O)[C@H](CCCC)NC(=O)[C@H](CC(N)=O)NC(=O)[C@H]([C@@H](C)O)NC(=O)[C@H](CCC(N)=O)NC(=O)[C@H](CCCCN)NC(=O)[C@H]([C@@H](C)CC)NC(=O)[C@H](CC(C)C)NC(=O)[C@H](CC(C)C)NC(=O)[C@H](C)NC(=O)[C@H](Cc2c[nH]c3ccccc23)NC(=O)c2ccc(-c3nc(C(=O)OC)cs3)nc2-c2csc1n2 [TL17] (HELM PEPTIDE1{W.A.L.L.I.K.Q.T.N.[Nle].L.Y.[O=C([C@H](CCCC(=O)[*:3])N[*:1])[*:2]]}|PEPTIDE2{[am]}|CHEM1{[C=C(N[*:2])c1nc(-c2nc(-c3nc(C(=O)OC)cs3)ccc2C(=O)[*:1])cs1]}$PEPTIDE1,PEPTIDE2,13:R3-1:R1|PEPTIDE1,CHEM1,1:R1-1:R1|PEPTIDE1,CHEM1,13:R2-1:R2$$$V2.0; bridges inferred)	6 ± 0.1	737	9	10	0.0067	18900			
C=C1NC(=O)[C@H]([C@@H](C)CC)NC(=O)[C@H](CO)NC(=O)[C@H](CC(=O)O)NC(=O)[C@H](CCCNC(=N)N)NC(=O)[C@H](C)NC(=O)[C@H](CCCC)NC(=O)C(=C)NC(=O)CNC(=O)[C@@H]2CCCN2C(=O)[C@H](Cc2c[nH]c3ccccc23)NC(=O)c2ccc(-c3nc(C(=O)OC)cs3)nc2-c2csc(n2)C(=C)NC1=O [TL18] (WPG[Dha][Nle]ARDSI[Dha]; linker N-C via X2)	2.5 ± 0.1	380	10	13					
